Where two headings read alike, the source gives them in different places.
How the values were obtained:
[1] = test system: ABC clinical isolates with SUL-DUR MIC > 4 µg/mL; assay: microbe, parasite or virus in culture; format: cell-based, Acinetobacter baumannii-calcoaceticus complex
How it was run: (§1)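 SUL-DUR combines serially twofold-diluted sulbactam with durlobactam held at 4 µg/mL; MICs obtained by CLSI-standard broth microdilution and read against CLSI breakpoints when these exist.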

[2] = test system: A. nosocomialis clinical isolate; assay: microbe, parasite or virus in culture; format: cell-based; conditions: Acinetobacter nosocomialis, isolate ARC7023 (IHMA 2118812), France, BSI, 2019, read-out: MIC
How it was run: as §1

[3] = test system: A. pittii clinical isolates; assay: microbe, parasite or virus in culture; format: cell-based; conditions: Acinetobacter pittii
How it was run: as §1

[4] = test system: A. baumannii clinical isolates; assay: microbe, parasite or virus in culture; format: cell-based; conditions: Acinetobacter baumannii
How it was run: as §1

A. baumannii PBP3 Q488K = assay: Acylation rate constant (kinact/Ki), fluorescence anisotropy competition with BOCILLIN
[5] = test system: A. baumannii wild-type PBP3; assay: as above; conditions: Wildtype PBP3

C[C@@H](O)[C@H]1C(=O)N2C(C(=O)O)=C(S[C@@H]3CN[C@H](C(=O)N(C)C)C3)[C@H](C)[C@H]12 [meropenem]
%NS (% non-susceptibility) ([1]; 64 non-clonal ABC isolates, 2023 CLSI breakpoints plus FDA breakpoint of 4 µg/mL for SUL-DUR): 100%
MIC50 ([1]; Acinetobacter): > 64 µg/mL
MIC90 ([1]; Acinetobacter): > 64 µg/mL
MIC ([1]; Acinetobacter, read-out: MIC Max): > 64 µg/mL
MIC ([1]; Acinetobacter, read-out: MIC Min): 32 µg/mL
MIC [2]: > 64 µg/mL
MIC ([3]; isolate ARC6949 (IHMA 1898982), Romania, RTI, 2018, read-out: MIC): > 64 µg/mL
MIC ([3]; isolate ARC6951 (IHMA 1776233), Philippines, RTI, 2018, read-out: MIC): > 64 µg/mL
MIC ([3]; isolate ARC6952 (IHMA 1899008), Romania, RTI, 2018, read-out: MIC): > 64 µg/mL
MIC ([3]; isolate ARC7087 (IHMA 2212062), Colombia, BSI, 2020, read-out: MIC): > 64 µg/mL
MIC ([4]; isolate ARC6644 (IHMA 1420327), Mexico, UTI, 2016, read-out: MIC): 64 µg/mL
MIC ([4]; isolate ARC6645 (IHMA 1435703), France, UTI, 2016, read-out: MIC): > 64 µg/mL
MIC ([4]; isolate ARC6646 (IHMA 1484127), United States, RTI, 2016, read-out: MIC): 64 µg/mL
MIC ([4]; isolate ARC6647 (IHMA 1386786), Argentina, RTI, 2016, read-out: MIC): > 64 µg/mL
MIC ([4]; isolate ARC6648 (IHMA 1407634), Spain, RTI, 2016, read-out: MIC): > 64 µg/mL
MIC ([4]; isolate ARC6650 (IHMA 1457337), Argentina, RTI, 2016, read-out: MIC): 64 µg/mL
MIC ([4]; isolate ARC6652 (IHMA 1465642), Belgium, RTI, 2016, read-out: MIC): > 64 µg/mL
MIC ([4]; isolate ARC6653 (IHMA 1308777), Vietnam, RTI, 2016, read-out: MIC): > 64 µg/mL
MIC ([4]; isolate ARC6799 (IHMA 1562935), Spain, UTI, 2017, read-out: MIC): 64 µg/mL
MIC ([4]; isolate ARC6800 (IHMA 1557526), Turkey, RTI, 2017, read-out: MIC): 64 µg/mL
MIC ([4]; isolate ARC6801 (IHMA 1662094), Thailand, RTI, 2017, read-out: MIC): > 64 µg/mL
MIC ([4]; isolate ARC6802 (IHMA 1557073), Spain, UTI, 2017, read-out: MIC): 64 µg/mL
MIC ([4]; isolate ARC6803 (IHMA 1589408), Belgium, UTI, 2017, read-out: MIC): > 64 µg/mL
MIC ([4]; isolate ARC6805 (IHMA 1558650), United States, RTI, 2017, read-out: MIC): 64 µg/mL
MIC ([4]; isolate ARC6808 (IHMA 1557168), Spain, RTI, 2017, read-out: MIC): 64 µg/mL
MIC ([4]; isolate ARC6809 (IHMA 1699528), Guatemala, RTI, 2017, read-out: MIC): > 64 µg/mL
MIC ([4]; isolate ARC6810 (IHMA 1699548), Guatemala, RTI, 2017, read-out: MIC): > 64 µg/mL
MIC ([4]; isolate ARC6812 (IHMA 1699530), Guatemala, RTI, 2017, read-out: MIC): > 64 µg/mL
MIC ([4]; isolate ARC6813 (IHMA 1699543), Guatemala, UTI, 2017, read-out: MIC): > 64 µg/mL
MIC ([4]; isolate ARC6814 (IHMA 1699512), Guatemala, RTI, 2017, read-out: MIC): > 64 µg/mL
MIC ([4]; isolate ARC6815 (IHMA 1699513), Guatemala, RTI, 2017, read-out: MIC): > 64 µg/mL
MIC ([4]; isolate ARC6816 (IHMA 1699521), Guatemala, RTI, 2017, read-out: MIC): > 64 µg/mL
MIC ([4]; isolate ARC6817 (IHMA 1699523), Guatemala, RTI, 2017, read-out: MIC): > 64 µg/mL
MIC ([4]; isolate ARC6818 (IHMA 1683261), Thailand, RTI, 2017, read-out: MIC): > 64 µg/mL
MIC ([4]; isolate ARC6819 (IHMA 1683267), Thailand, RTI, 2017, read-out: MIC): > 64 µg/mL
MIC ([4]; isolate ARC6820 (IHMA 1647876), Argentina, RTI, 2017, read-out: MIC): 64 µg/mL
MIC ([4]; isolate ARC6821 (IHMA 1699517), Guatemala, RTI, 2017, read-out: MIC): > 64 µg/mL
MIC ([4]; isolate ARC6822 (IHMA 1637626), Guatemala, RTI, 2017, read-out: MIC): > 64 µg/mL
MIC ([4]; isolate ARC6823 (IHMA 1620872), Greece, SSSI, 2017, read-out: MIC): > 64 µg/mL
MIC ([4]; isolate ARC6824 (IHMA 1625487), Argentina, BSI, 2017, read-out: MIC): > 64 µg/mL
MIC ([4]; isolate ARC6937 (IHMA 1562926), Spain, UTI, 2017, read-out: MIC): 64 µg/mL
MIC ([4]; isolate ARC6950 (IHMA 1820064), Israel, RTI, 2018, read-out: MIC): > 64 µg/mL
MIC ([4]; isolate ARC6953 (IHMA 1909827), Turkey, IAI, 2018, read-out: MIC): > 64 µg/mL
MIC ([4]; isolate ARC6954 (IHMA 1838192), Guatemala, SSSI, 2018, read-out: MIC): > 64 µg/mL
MIC ([4]; isolate ARC6955 (IHMA 1825425), United States, RTI, 2018, read-out: MIC): 64 µg/mL
MIC ([4]; isolate ARC7008 (IHMA 2009813), Thailand, BSI, 2019, read-out: MIC): > 64 µg/mL
MIC ([4]; isolate ARC7009 (IHMA 2043611), United States, UTI, 2019, read-out: MIC): > 64 µg/mL
MIC ([4]; isolate ARC7010 (IHMA 2043398), United States, RTI, 2019, read-out: MIC): > 64 µg/mL
MIC ([4]; isolate ARC7011 (IHMA 2104553), Germany, RTI, 2019, read-out: MIC): > 64 µg/mL
MIC ([4]; isolate ARC7012 (IHMA 2010001), Thailand, RTI, 2019, read-out: MIC): > 64 µg/mL
MIC ([4]; isolate ARC7013 (IHMA 1962831), Argentina, RTI, 2019, read-out: MIC): > 64 µg/mL
MIC ([4]; isolate ARC7014 (IHMA 2045328), Guatemala, IAI, 2019, read-out: MIC): > 64 µg/mL
MIC ([4]; isolate ARC7015 (IHMA 2045327), Guatemala, UTI, 2019, read-out: MIC): > 64 µg/mL
MIC ([4]; isolate ARC7016 (IHMA 2148441), Brazil, BSI, 2019, read-out: MIC): > 64 µg/mL
MIC ([4]; isolate ARC7017 (IHMA 2148446), Brazil, BSI, 2019, read-out: MIC): > 64 µg/mL
MIC ([4]; isolate ARC7018 (IHMA 2045454), Guatemala, IAI, 2019, read-out: MIC): > 64 µg/mL
MIC ([4]; isolate ARC7019 (IHMA 2114463), Thailand, RTI, 2019, read-out: MIC): > 64 µg/mL
MIC ([4]; isolate ARC7020 (IHMA 2045326), Guatemala, RTI, 2019, read-out: MIC): > 64 µg/mL
MIC ([4]; isolate ARC7021 (IHMA 1966347), Guatemala, RTI, 2019, read-out: MIC): > 64 µg/mL
MIC ([4]; isolate ARC7022 (IHMA 2045319), Guatemala, IAI, 2019, read-out: MIC): > 64 µg/mL
MIC ([4]; isolate ARC7024 (IHMA 2059448), Turkey, RTI, 2019, read-out: MIC): > 64 µg/mL
MIC ([4]; isolate ARC7025 (IHMA 2002121), Spain, RTI, 2019, read-out: MIC): 64 µg/mL
MIC ([4]; isolate ARC7026 (IHMA 2104494), Guatemala, BSI, 2019, read-out: MIC): > 64 µg/mL
MIC ([4]; isolate ARC7082 (IHMA 2160640), Belgium, BSI, 2020, read-out: MIC): > 64 µg/mL
MIC ([4]; isolate ARC7083 (IHMA 2163687), United States, RTI, 2020, read-out: MIC): 64 µg/mL
MIC ([4]; isolate ARC7084 (IHMA 2189596), Germany, RTI, 2020, read-out: MIC): > 64 µg/mL
MIC ([4]; isolate ARC7085 (IHMA 2205747), Guatemala, IAI, 2020, read-out: MIC): > 64 µg/mL
MIC ([4]; isolate ARC7086 (IHMA 2207563), Israel, RTI, 2020, read-out: MIC): 32 µg/mL
MIC ([4]; isolate ARC7088 (IHMA 2215554), Turkey, BSI, 2020, read-out: MIC): > 64 µg/mL
MIC ([4]; isolate ARC7089 (IHMA 2240345), Argentina, BSI, 2020, read-out: MIC): 64 µg/mL
MIC ([4]; isolate ARC7090 (IHMA 2244410), Poland, RTI, 2020, read-out: MIC): > 64 µg/mL
MIC ([4]; isolate ARC7091 (IHMA 2244564), Australia, RTI, 2020, read-out: MIC): > 64 µg/mL
MIC ([4]; isolate ARC7092 (IHMA 2258772), United States, BSI, 2020, read-out: MIC): > 64 µg/mL
MIC ([4]; isolate ARC7093 (IHMA 2258783), United States, RTI, 2020, read-out: MIC): > 64 µg/mL
MIC ([4]; isolate ARC7094 (IHMA 2296423), Turkey, RTI, 2020, read-out: MIC): 64 µg/mL
MIC ([4]; isolate ARC7095 (IHMA 2320843), Turkey, BSI, 2020, read-out: MIC): 32 µg/mL
MIC ([4]; isolate ARC7156 (IHMA 2455450), Greece, RTI, 2021, read-out: MIC): > 64 µg/mL
MIC ([4]; isolate ARC7158 (IHMA 2523738), Italy, BSI, 2021, read-out: MIC): > 64 µg/mL
MIC ([4]; isolate ARC7159 (IHMA 2456229), Malaysia, RTI, 2021, read-out: MIC): > 64 µg/mL
MIC ([4]; isolate ARC7160 (IHMA 2458626), Thailand, RTI, 2021, read-out: MIC): > 64 µg/mL
MIC ([4]; isolate ARC7161 (IHMA 2429252), Ukraine, RTI, 2021, read-out: MIC): 64 µg/mL
MIC ([4]; isolate ARC7162 (IHMA 2411847), United States, BSI, 2021, read-out: MIC): > 64 µg/mL
MIC ([4]; isolate ARC7163 (IHMA 2477704), United States, BSI, 2021, read-out: MIC): > 64 µg/mL
% WT (A. baumannii PBP3 Q488K): 78%
k inact/K i (A. baumannii PBP3 Q488K; average ± SD): 3,900 ± 200 ([2]) M^-1s^-1
% WT [5]: 100%
k inact/K i ([5]; average ± SD): 5,000 ± 1,000 ([10]) M^-1s^-1

— article PMC10648852, “Molecular drivers of resistance to sulbactam-durlobactam in contemporary clinical isolates of Acinetobacter baumannii” (Antimicrobial Agents and Chemotherapy, 2023)
